Experimental findings from US20200276181A1, “THIENOISOQUINOLINES AND THEIR DERIVATIVES FOR TARGETING TUBULIN, CH-TOG, AURORA A KINASE, TPX2, CDK5RAP2 AND/OR ASPM” (VALORBEC, SEC, priority 2017, published 2020) are described below.

The test system of experiment [1] is HCT116, HeLa and A549 cells. Description: Cell cycle phases by flow cytometry. In kind it is cell-based. To be noted: 300 nM or 400 nM for 8 hours. An excerpt:
For each condition, 20,000 cells were counted per replicate (N=3). Line graphs (right) were made to better illustrate the relative changes in the cell cycle phases for the different treatments. Bars show standard deviation. The asterisks indicate the first statistically significant change in the G0/G1 and G2/M populations determined by a two-way ANOVA with a post-hoc Tukey's multiple comparisons test using 95% confidence intervals. FIG. 2B) is a line graph showing the percentage of HCT116 (p53−/−) cells, A549 cells, HeLa cells and H1299 cells in mitosis after treatment with various concentrations of C75 for one population doubling time. All of the cell lines show an increase in the proportion of mitotic cells after treatment with 200 nM C75. The bars indicate standard deviation. […]
C75 was also tested for efficacy in different cancer cell lines. […] To further assess the role of C75 in disrupting spindles, HeLa cells were treated with 300 nM C75 for 4 hours and the spindle phenotypes were analyzed in more detail (FIG. 2E). […] To assess the affect of C75 on centrosomes, HeLa cells were treated with C75 or nocodazole (a drug that causes microtubule depolymerization as a control) for a short period of time (5 minutes), then the drugs were removed and the cells were analyzed for spindle phenotypes (schematic in FIG. 2G). […]

In experiment [2] the test system is HCT116 cells with lower levels of endogenous MCAK (MCAK RNAi). Description: Spindle phenotypes with MCAK RNAi. To be noted: 300 nM C75. In kind it is cell-based. The protocol: FIG. 9A) is a series of images of HCT116 cells with lower levels of endogenous MCAK (MCAK RNAi), stained for DAPI (DNA) and tubulin (microtubules), and treated with 300 nM C75 or control. FIG. 9B) is a bar graph showing the proportion of spindle phenotypes in HCT116 cells treated as in 9A). The multipolar spindle phenotypes caused by C75 are suppressed by MCAK RNAi.
It was observed that the proportion of multipolar spindles caused by C75 are decreased after MCAK depletion.

The test system of experiment [3] is HeLa cells (GFP:tubulin, SiR-tubulin or GFP-tagged ch-TOG). Description: Live imaging of spindles. In kind it is cell-based, human. The text has this:
Bars show standard deviation. […] The bars indicate standard deviation. […] Bars show standard deviation. […] Bars show standard deviation. […] The scale bar for all cells is 10 μm.

In experiment [4] the test system is HeLa cells. Nature of the experiment: Spindle morphology, fixed cells stained for tubulin and DAPI. In kind it is cell-based, human. The method, then:
FIG. 1A) is a line graph showing changes in the percentage of viable HFF-1, HeLa, A549 and HCT 116 cells after treatment with a range of C75 concentrations for 3 population doubling times (N=3). […] There were more rounded mitotic cells after C75 treatment in comparison to the control. FIG. 1C) is a line graph showing the percentage of HeLa and HFF1 cells in mitosis after treatment with various concentrations of C75 for 8 hours. The bars indicate standard deviation. FIG. 1D) is a series of images showing cells that were fixed and co-stained for tubulin (microtubules) and DAPI (DNA). Treatment of HeLa cells with 300 nM C75 caused the mitotic spindles to be disorganized, while they were not affected in HFF1 cells. […] The scale bar for the cells is 10 μm. […] FIG. 1F) is a cartoon schematic showing the key features of a metaphase cell.
The images in FIG. 1B) show fields of view of HeLa cells treated with (dimethyl sulfoxide) DMSO or 500 nM of C75. […] Higher concentrations of C75 caused spindle phenotypes in HFF1 cells, but they were quite different in comparison to HeLa cells (FIG. 1D).

Experiment [5] has as its system HeLa cells. Description: Percentage of mitotic cells, nocodazole +/- C75. In kind it is cell-based, human. The note with it: 200 nM C75 + 33 or 66 nM nocodazole.

Molecules are shown by their SMILES.

As to `COc1ccc(S(=O)(=O)N2Cc3ccccc3-c3sc(Br)cc32)cc1` [Compound C75], in experiment [1], the “change in proportion of G2/M cells” value is listed as “increase in the proportion of G2/M cells”. The “suppression of multipolar spindle phenotypes by MCAK RNAi” value in experiment [2] is “suppressed”. Also, the “time until spindle poles collapse together in metaphase cells” value in experiment [3] (100-300 nM) was 1 to 2 min. In experiment [3] (HeLa live imaging), the “time after exposure until centrosomes fragmented or declustered and microtubules collapsed” value fell in the range of 4 to 6 min; the “time after washout until microtubule polymers grew back” value lay in the range of 20 to 30 min. Moreover, in experiment [3] (HeLa live imaging, drugs not washed out), the “microtubule polymers without washout” value was “microtubule polymers grow back to form multipolar spindles”. Moreover, the mitotic spindle morphology entry in experiment [4] (300 nM) was “spindle organization was perturbed”. Besides, the mitotic spindle morphology result in experiment [4] (750 nM) is “Centrosomes were fragmented or declustered and microtubules were completely absent”. Further, the “change in proportion of mitotic cells” value in experiment [5] is given as “large change”.
